Measurements: article PMC5307958 (Scientific Reports, 2017)
“Also recorded” adds a separate entry of the source. Where a SMILES comes first, the peptide text is derived from it. Bridges are numbered along the chain shown (N, C = ends).

Assays:
[1] = system: auditory nerve and generators caudal to the IC; test: Auditory brainstem responses (ABR); format: in vivo, mouse
Procedure: The temperature was maintained near 25 °C.
ABR recordings were acquired after the mice were anesthetized with ketamine (120 mg/kg) and xylazine (10 mg/kg) I.P., and respiration was monitored throughout to determine when additional supplemental doses were needed. Body temperature was kept constant at 37 °C using a feedback controlled heating pad (Physitemp TCAT2-LV Controller, Clifton, NJ). Stimuli and recordings were generated digitally and controlled using a TDT RZ6 Multi-I/O Processor and their BioSig/SigGen software. Acoustic signals were played through a multi-field (MF1) magnetic speaker (TDT, Alachua, FL) with a total harmonic distortion < = 1% from 1 kHz to 50 kHz, centered 0° azimuth in regards to the animal at a distance of 10 cm from the ear pinna. Tone bursts were presented at frequencies of 6, 12, 16, 20, 24, and 36 kHz (3 ms duration, 1 ms rise/fall time, alternating polarity) at a rate of 29 per second, attenuated in 5 dB steps from 80 dB SPL to 15 dB below threshold or 5 dB SPL, whichever was lower. Threshold was determined by visual inspection as the lowest intensity level which produced a defined wave in both replicates. All signals were calibrated using a Larsen Davis preamplifier, model 2221, with a 1/4″ microphone and a Larson Davis CAL200 Precision Acoustic Calibrator (PCB Piezotronics, Inc., Depew, NY). ABR recordings were acquired using a TDT RA4LI low-impedance digital headstage and RA4PA Medusa preamp with the active (noninverting) electrode inserted at the vertex, the reference (inverting) electrode below the left ear, and the ground electrode below the right ear. The responses were amplified (20×), filtered (300 Hz–3 kHz), and averaged using BioSig software and the System III hardware (TDT) data-acquisition system. A total of 256 tone burst signal and 150 GIN signal recordings were replicated for each acquisition, and muscle artifacts exceeding 7 μV were rejected from the averaged response. All recordings took place in a soundproof booth lined with echo-attenuating acoustic foam. ABR waveforms were analyzed using a custom MatLab program that automatically determined peak latencies and amplitudes in combination with secondary verification by an experimenter blind to the treatment group.

[2] = system: human BKα channel ZERO isoform expressed in HEK293 cells; test: Phagemid display selection (panning); format: binding
From the text: A monovalent phagemid display library (library C, Mobitec) was sequentially panned against three sets of HEK293 cells (see below). For negative selection, cells expressed the human glycine receptor α1 (hGlyRα1, X52009) and the rat small conductance calcium-activated channel 2 (rSK2, U69882.1). For positive selection, cells expressed the human BKα channel ZERO isoform (NM_002238). The progress of the selection process was monitored after each panning round by titering and sequencing the phagemid DNA. With 6 randomized and 3 fixed amino acids, this library started with 3 × 10^7 unique sequences. LS3 was selected as one of the sequences expressing motifs that were enriched more than 1000 -fold. LS3 was synthesized as a TFA salt at 98–99% purity verified by HPLC and MS analysis (Genscript, Piscataway, NJ). Stocks were dissolved in water at 10 mM and aliquots were lyophilized and stored at −80 °C. As a secondary determination of identity and purity, in-house LC/MS was performed on a single quadrupole Mass Spectrophotometer (Agilent 6130) interfaced with a HPLC with a diode-array (UV-vis) detector (Agilent 1200).
HEK293 cells (ATCC, Manassas, VA) were grown according to standard procedures. Cells were cultured at 37 °C in a 5% CO2 atmosphere in Dulbecco’s modified Eagle’s medium with L-glutamine, sodium pyruvate and 10% fetal bovine serum (Invitrogen). Cell lines were split with trypsin/EDTA in Hanks’ balanced salt solution (Invitrogen) up to 25–30 cycles. For phage display, stable lines stably expressed rSK2 or hBKα ZERO isoform. Cells were transfected (Lipofectamine 2000, Invitrogen) with hGlyRα1 and used 48 hours later. For electrophysiological recordings, cells were transfected with hBKα ZERO isoform. Enhanced green fluorescent protein (EGFP) was cotransfected as a marker. Electrophysiological recordings were made 16–72 h after transfection. […]

[3] = system: mouse inferior colliculus (auditory midbrain); test: Sound evoked activity within excitatory receptive field (eRF), topical application on dura
[4] = phage-displayed sequence CRRGLVQVC

**Q.** Which “mean ABR thresholds” value ([1]; 4 hours post I.P. injection vs. baseline, tone bursts) does the source give for `CC(C)C[C@@H]1NC(=O)CNC(=O)[C@H](CCCNC(=N)N)NC(=O)[C@H](CCCNC(=N)N)NC(=O)[C@@H](N)CSSC[C@@H](C(=O)O)NC(=O)[C@H](C(C)C)NC(=O)[C@H](CCC(N)=O)NC(=O)[C@H](C(C)C)NC1=O` [LS3] (H-CRRGLVQVC-OH; disulfide 1-9; N-terminus and C-terminus assumed) here?
**A.** Its value is “No significant effect”.

**Q.** And the “activity at cochlear BK channels” value ([1]; inferred from unaltered ABRs after systemic administration)?
**A.** Its value is “not active at cochlear BK channels”.

**Q.** What about the “effect on ABRs / peripheral auditory processing” value ([1]; systemic (I.P.) administration) of the same molecule?
**A.** The value was “without altering peripheral auditory processing; also recorded: does not alter ABRs”.

**Q.** And the “ABR peak 1 (P1) amplitude by intensity functions” value ([1]; systemic (I.P.) injection, 4 hrs vs. baseline, auditory nerve)?
**A.** Its value is “unaffected; also recorded: Neither BK channel modulator reduced auditory nerve (P1)”.

**Q.** What about the “ABR peak 4 (P4) amplitude by intensity functions” value ([1]; systemic (I.P.) injection, 4 hrs vs. baseline, generators caudal to the IC (brainstem)) of the same molecule?
**A.** Its value is “unaffected; also recorded: Neither BK channel modulator reduced auditory nerve (P1) or brainstem (P4) amplitudes”.

**Q.** And the “enrichment of motifs expressed by the sequence” value ([2]; criterion for selection of LS3)?
**A.** The value was “more than 1000 fold”.

**Q.** And the “enrichment of motif RRXXXXV during selection” value [2, 4]?
**A.** Its value is ~ 4000 fold.

**Q.** What about the “enrichment of motif XRGXXXV during selection” value [2, 4] of the same molecule?
**A.** The value was ~ 3000 fold.

**Q.** And the “mean driven activity within receptive field” value ([3]; 1 μL of 10 μM LS3, 120 minutes post application, baseline 450 spikes, mean, 49 units)?
**A.** Its value is ~ 225 spikes.

**Q.** What about the “reduction of mean sound evoked activity” value ([3]; 1 μL of 10 μM LS3, after 3 hours, 47 recording sites, N = 5 mice) of the same molecule?
**A.** The value was ~ 70%.

**Q.** What about the “mean sound evoked activity” value ([3]; 1 μL of 10 μM LS3, after 3 hours, baseline 430, 47 recording sites, N = 5 mice) of the same molecule?
**A.** Its value is 130 spikes.

**Q.** What about the “time course of driven activity” value ([3]; 1 μL of 10 μM LS3, mean of 49 units, F(5,206) = 5.085 P = 0.0002) of the same molecule?
**A.** Its value is “continued to decline out to 4 hours”.

**Q.** And the “reduction of sound evoked driven activity within the RF” value ([3]; 1 μL of 10 μM stock, from baseline pre-peptide, Fig. 5A,B representative eRFs)?
**A.** The value was “approximately 50%”.
